Values joined by “and” are separate entries in the source; they are usually repeats but may differ in a detail not shown here. Equal values may be shown once. Each block holds one compound with its values, some of them ahead of it.
Columns and labels:
[1] = system: NRF2 protein; experiment: Western blot, NRF2 protein accumulation in cells; assay type: cell-based, human; conditions: 100 nM
Description: (§1) Western blotting was performed as described previously. Treated cells were lysed by RIPA buffer supplemented with protease inhibitor. The expression level of indicated proteins was examined by immunoblotting analysis and GAPDH was used as the loading control. Antibodies were purchased commercially: cullin 1 (sc-17775, 1:500 dilution) and cullin 2 (sc-166506, 1:500 dilution) from Santa Cruz Biotech (Santa Cruz, CA); cullin 4A (PA5-14542, 1:1000 dilution), cullin 4B (PA5-50647, 1:1000 dilution), and DCN3 (DCUN1D3, PA5-44000, 1:1000 dilution) from Thermo Fisher Scientific (Wayne, MI); cullin 3 (2759, 1:1000), NRF2 (12721, 1:1000 dilution), HO-1 (70081, 1:1000 dilution), and Bim (2819, 1:1000 dilution) from Cell Signaling Technology (Boston, MA); DCN1 (GWB-E3D700, 1:1000 dilution) from GenWay Biotech (San Diego, CA); and cullin 5 (A302-173A, 1:500 dilution) from Bethyl Labs (Montgomery, TX). Results are representative of two independent experiments.

[2] = system: neddylation of cullin 3; experiment: Western blot, cullin 3 neddylation in cells of different tissue types (U2OS, THLE2, MDA-MB-231, KYSE70, HCT116); assay type: cell-based, human
Description: as §1

[3] = Cell viability assay (WST-8), MDA-MB-231; assay type: cell-based, human; conditions: human, MDA-MB-231 cells, replicates, read-out: cell viability relative to control
Description: (§2) Cell viability assay was performed as previously described. The effect of DCN1 inhibitors on cell growth was evaluated by a WST-8 [2-(2-methoxy-4-nitrophenyl)-3-(4-nitrophenyl)-5-(2,4-disulfophenyl)-2H-tetrazolium, monosodium salt assay (Dojindo Molecular Technologies, Inc). Cells (2000–3000 cells in each well) were seeded in 96-well tissue culture plates in medium (100 μL) and treated with serial dilution of DCN1 inhibitors for 3 days. At the end of incubation, WST-8 dye (20 μL) was added to each well and incubated for 1–3 h, then the absorbance was measured in a microplate reader (Molecular Devices) at 450 nm. Cell growth inhibition was evaluated as the ratio of the absorbance of the sample to that of the control. The values were inserted into Prism software, and the curves and the EC50 values were produced by Prism software.

[4] = system: MDA-MB-231 cells; experiment: Cell viability assay (WST-8), MDA-MB-231; assay type: cell-based, human; conditions: for cell viability relative to control: replicates
Description: as §2

[5] = system: HCT116 cells; experiment: Cell viability assay (WST-8), HCT116; assay type: cell-based, human; conditions: for cell viability relative to control: replicates
Description: as §2

[6] = Cell viability assay (WST-8), HCT116; assay type: cell-based, human; conditions: human, HCT116 cells, replicates, read-out: cell viability relative to control
Description: as §2

[7] = system: U2OS cells; experiment: Cell viability assay (WST-8), U2OS; assay type: cell-based, human; conditions: for cell viability relative to control: replicates
Description: as §2

[8] = target: DCN1 (Homo sapiens, UniProt Q96GG9); experiment: Intact-protein mass spectrometric analysis of covalent complex formation, Method A; assay type: binding; conditions: for Percentage of the formation of covalent complex with DCN1 protein: 37 °C
DCN1, sequence (Q96GG9 58-259 limits assumed): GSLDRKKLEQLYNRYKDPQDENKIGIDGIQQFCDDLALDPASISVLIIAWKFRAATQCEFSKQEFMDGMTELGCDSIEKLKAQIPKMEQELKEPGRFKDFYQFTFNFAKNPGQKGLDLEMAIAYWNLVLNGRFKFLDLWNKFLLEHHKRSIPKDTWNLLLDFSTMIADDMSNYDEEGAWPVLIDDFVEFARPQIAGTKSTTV
Text: MassHunter Qualitative Analysis software (Agilent) was used to analyze the data. Intact protein masses were obtained using the maximum entropy deconvolution algorithm. The mass spectrometry data in Supplementary Figs. 1–11 were generated by Method A.

[9] = system: neddylation of cullin 3; experiment: Western blot, cullin 3 neddylation in U2OS cells; assay type: cell-based, human; conditions: 24 h, Fig. 1c
Description: as §1

[10] = system: APAP-induced liver injury; experiment: APAP-induced liver injury: alanine aminotransferase (ALT) level; assay type: in vivo, mouse; conditions: single dose 400 mg/kg, IP
Description: (§3) The in vivo studies were performed under animal protocols (PRO00007499) and (PRO00006638) approved by the Institutional Animal Care & Use Committee of the University of Michigan, in accordance with the recommendations in the Guide for the Care and Use of Laboratory Animals of the National Institutes of Health. C57BL/6 WT mice (~8 weeks, male, normal chow) were purchased from the Jackson Laboratory and randomly divided into eight groups (8–9 mice per group) treated (IP) as follows: phosphate-buffered saline vehicle once per day for 3 days (G1), APAP alone a single dose at 400 mg/kg on day 1 (G2), DI-1859 alone 25 mg/kg once per day for 3 days (G3), DI-1859 alone 50 mg/kg once per day for 3 days (G4), pretreatment (1 day before the APAP administration) with DI-1859 at 25 mg/kg once per day for 3 days followed with APAP at 400 mg/kg on day (G5), pretreatment (1 day before the APAP administration) with DI-1859 at 50 mg/kg once per day for 3 days followed with APAP at 400 mg/kg on day (G6), APAP a single dose at 400 mg/kg (3 h before the first DI-1859 administration) followed with DI-1859 at 25 mg/Kg once per day for 3 days (G7), and APAP a single dose at 400 mg/kg (3 h before the first DI-1859 administration) followed with DI-1859 at 50 mg/Kg once per day for 3 days (G8).
(§4) To induce acute liver injury, animals received PBS or APAP (400 mg/kg, sigma, A7085) through I.P. injection at 12 p.m. and were sacrificed 48 h afterward. To examine the protective effect of DI-1859 (groups 5 and 6), animals were I.P. injected with compound for 3 consecutive days (9 a.m. on each day, starting 1 day before APAP administration). To examine the restorative effect of DI-1859 (groups 7 and 8), animals were I.P. injected with compound 3 h after APAP administration followed by two additional treatments (9 a.m. on the next 2 days). Body weight and blood glucose level measurement, along with blood sample collection, were performed at 12 p.m. on each day.
Blood glucose levels were determined using glucometers (Bayer Corp., Pittsburgh, PA). Plasma ALT activity was measured using an ALT reagent set (Pointe Scientific Inc., Canton, MI).

[11] = system: APAP-induced liver injury; experiment: APAP-induced liver injury: ROS assay in liver tissue; assay type: in vivo, mouse; conditions: G2: APAP 400 mg/kg, a single dose
Description: as §3, §4
Liver samples were homogenized in a lysis buffer and mixed with a dichlorofluorescein diacetate fluorescent probe (DCF, Sigma, D6883) to a final probe concentration of 5 µM for 1 h at 37 °C. DCF fluorescence was measured using a BioTek Synergy 2 Multi-Mode Microplate Reader (485 nm excitation and 527 nm emission).

[12] = 10 min incubation, 1.2-fold excess inhibitor

Compound: C=C(CN(C)C)C(=O)NC[C@H](NC(=O)[C@@H](Cc1nc2ccc(C(C)C)cc2s1)NC(=O)CC)C1CCCCC1 [DI-1859DD]
- accumulation of NRF2 protein [1]: no obvious accumulation
- times less potent than DI-1548 and DI-1859, respectively, on cullin 3 neddylation [2]: > 300 times
- effect on the neddylation of cullin 3 ([2]; 100–300 nM): no significant effect

Compound: CCC(=O)N[C@@H](Cc1nc2ccc(C(C)C)cc2s1)C(=O)N[C@H](CNC(=O)CCN1CCOCC1)C1CCCCC1 [DI-591]
- viability at 72 h ([3]; conc 10, 72 h): 94.3%
- viability at 72 h ([3]; conc 30, 72 h): 113%
- viability at 72 h ([3]; conc 100, 72 h): 109%
- viability at 72 h ([3]; conc 300, 72 h): 105%
- viability at 72 h ([3]; conc 1000, 72 h): 94.9%
- EC50 ([4]; Homo sapiens, MDA-MB-231, 72 h, read-out: EC50, cell growth inhibition): > 1 µM
- cell viability relative to control ([4]; conc 10, 72 h): 101.954 and 101.609
- cell viability relative to control ([4]; conc 30, 72 h): 108.276 and 97.3563
- cell viability relative to control ([4]; conc 100, 72 h): 100.345 and 97.5862
- cell viability relative to control ([4]; conc 300, 72 h): 105.517 and 106.667
- cell viability relative to control ([4]; conc 1000, 72 h): 102.644
- EC50 ([5]; Homo sapiens, HCT-116, 72 h, read-out: EC50, cell growth inhibition): > 1 µM
- cell viability relative to control ([5]; conc 3, 72 h): 106.068 and 106.647
- cell viability relative to control ([5]; conc 10, 72 h): 94.7863 and 106.766
- cell viability relative to control ([5]; conc 30, 72 h): 103.675 and 96.2874
- cell viability relative to control ([5]; conc 100, 72 h): 92.6577 and 103.333 and 79.1617
- cell viability relative to control ([5]; conc 300, 72 h): 90.9009 and 107.521 and 85.6886
- cell viability relative to control ([5]; conc 1000, 72 h): 100.085 and 92.0359
- viability at 72 h ([6]; conc 3, 72 h): 106%
- viability at 72 h ([6]; conc 10, 72 h): 94.3%
- viability at 72 h ([6]; conc 30, 72 h): 90%
- viability at 72 h ([6]; conc 1000, 72 h): 94.3%
- EC50 ([7]; Homo sapiens, U2OS, 72 h, read-out: EC50, cell growth inhibition): > 1 µM
- cell viability relative to control ([7]; conc 10, 72 h): 113.521 and 92.8169 and 93.8028
- cell viability relative to control ([7]; conc 30, 72 h): 110.282 and 96.9014 and 89.8591
- cell viability relative to control ([7]; conc 100, 72 h): 112.958 and 95.2113 and 89.4366
- cell viability relative to control ([7]; conc 300, 72 h): 115.211 and 91.5493 and 99.0141
- cell viability relative to control ([7]; conc 1000, 72 h): 84.9296 and 111.127 and 85.7746

Compound: CC(=O)Nc1ccc(O)cc1 [APAP, acetaminophen]
- hepatotoxicity in mice [10]: induced severe hepatotoxicity
- ROS level in mouse liver tissue, mean [11]: 12.4435 A.U./ug
- ROS level normalised to the mean of G1 (vehicle), mean [11]: 1.645

Compound: C=C(Cn1ccnc1)C(=O)NC[C@@H](NC(=O)[C@H](Cc1nc2ccc(C(C)C)cc2s1)NC(=O)CC)C1CCCCC1 [compound 10]
- covalent complex formation / reaction kinetics with DCN1 protein (in words) [8]: slower reaction kinetics with DCN1 than DI-1548 and DI-1859
- Percentage of the formation of covalent complex with DCN1 protein [8, 12]: 80%
- Percentage of the formation of covalent complex with DCN1 protein ([8]; 60 min (1 h) incubation): 100%
- Percentage of the formation of covalent complex with DCN1 protein ([8]; 180 min (3 h) incubation): 100%
- Percentage of the formation of covalent complex with DCN1 protein ([8]; 720 min (12 h) incubation): 100%
- potency in inhibition of cullin 3 neddylation compared with DI-1548 ([2]; in cell, Supplementary Fig. 12): ten times less potent than DI-1548

Compound: CCC(=O)N[C@@H](Cc1nc2ccc(C(C)C)cc2s1)C(=O)N[C@H](CNC(=O)/C=C/CN(C)C)C1CCCCC1 [compound 5]
- covalent complex formation / reaction kinetics with DCN1 protein (in words) [8]: reaction kinetics similar to that of 3
- Percentage of the formation of covalent complex with DCN1 protein [8, 12]: 0%
- Percentage of the formation of covalent complex with DCN1 protein ([8]; 60 min (1 h) incubation): 0%
- Percentage of the formation of covalent complex with DCN1 protein ([8]; 180 min (3 h) incubation): 2%
- Percentage of the formation of covalent complex with DCN1 protein ([8]; 720 min (12 h) incubation): 30%

The next lines start with results.

- Percentage of the formation of covalent complex with DCN1 protein ([8]; 60 min (1 h) incubation): 15%
- Percentage of the formation of covalent complex with DCN1 protein ([8]; 720 min (12 h) incubation): 100%
Compound: C=C(CCN1CCOCC1)C(=O)NC[C@@H](NC(=O)[C@H](Cc1nc2ccc(C(C)C)cc2s1)NC(=O)CC)C1CCCCC1 [compound 8]
- covalent complex formation / reaction kinetics with DCN1 protein (in words) [8]: much slower reaction kinetics than 6 and 7
- potency in inhibition of cullin 3 neddylation compared with DI-591 [9]: much more potent than DI-591

- Percentage of the formation of covalent complex with DCN1 protein ([8]; 60 min (1 h) incubation): 30%
- Percentage of the formation of covalent complex with DCN1 protein ([8]; 180 min (3 h) incubation): 50%
- Percentage of the formation of covalent complex with DCN1 protein ([8]; 720 min (12 h) incubation): 100%
Compound: C=C(CCN(C)C)C(=O)NC[C@@H](NC(=O)[C@H](Cc1nc2ccc(C(C)C)cc2s1)NC(=O)CC)C1CCCCC1 [compound 9]
- covalent complex formation / reaction kinetics with DCN1 protein (in words) [8]: much slower reaction kinetics than 6 and 7
- potency in inhibition of cullin 3 neddylation compared with DI-591 [9]: much more potent than DI-591
